From patent US12691101B2, “Compound and method for preventing or treating of respiratory diseases comprising the same as an active ingredient” (YONSEI UNIVERSITY, UNIVERSITY - INDUSTRY FOUNDATION (UIF), priority 2019, dated 2026)

Tested on: OVA-sensitized and challenged mice
Assay: OVA-induced allergic asthma mouse model
Assay type: in vivo
Conditions: for OVA-induced airway sensitivity / airway resistance: pretreatment, F56 10 mg/kg i.p. 12 hours before OVA challenge, methacholine
Experimental: (A) Protocol of induction of allergic airway inflammation solution after allergen antigen challenge in a wild-type mouse and time course. F56 (10 mg/kg three times/day) was applied after tertiary OVA challenge. (B) Airway reactivity measured by whole body plethysmography in an OVA-induced asthma model. Penh was measured in response to an increased dose of methacholine (mean±S.E., n=4). (C) Representative PAS staining of airway tissue. Size bar, 100 μm. (D) Summary of PAS positive cells (mean±S.E., n=4). * P<0.05.
Experiments were performed using 8-week-old BALB/c mice. The experimental protocol was approved by the Animal Ethics Committee of Yonsei University. Mice were housed and maintained in an animal facility under standard laboratory conditions [12/12 hours light/dark cycle, controlled temperature (21±2° C.) and humidity (55±5%) and access to any food and water]. All the experiments were performed according to the guidelines of Yonsei University Animal Research Committee. Mice were divided to 3 groups, vehicle group (vehicle-treated PBS-sensitized and challenged mice), OVA group (vehicle-treated OVA-sensitized and challenged mice) and OVA+F56 group (F56-treated OVA-sensitized and challenged mice). Age and sex-matched 8-week-old mice were sensitized by i.p. injection of OVA (Sigma-Aldrich) on Days 0 and 14. The sensitization emulsion was composed of 50 μg OVA and 2 mg aluminum potassium sulfate in 200 μL saline solution. On Days 21, 22 and 23, sensitized mice were lightly anesthetized by isoflurane inhalation and challenged with 100 μg OVA in 30 μL saline solution administered intranasally. The control mice were treated in the same manner as PBS. F56 (10 mg/kg) was administered by i.p injection 12 hours before i.n. OVA challenge, respectively.
The airway response for methacol (MCh) 24 hours after the last OVA exposure was measured using FlexiVent system (Scireq, Montreal, QC, Canada). Mice were anesthetized by intraperitoneal injection of the mixture of Zoletil (30 mg/kg; Virbac Laboratories, Carros, France) and Rompun (10 mg/kg; Bayer, Leverkusen, Germany), and then tracheostomy was performed to connect to FlexiVent. The base line airway resistance was measured after spraying saline solution for 10 seconds using Aeroneb ultrasonic nebulizer (SCIREQ). After measuring the base line, the mice were exposed to nebulized methacholine at an increased concentration (0, 1.56, 3.13, 6.25, 12.5 and 25 mg/mL). In addition, using whole body plethysmography (Buxco, Miami, FL, USA), the bronchial airway responsibility was measured. As a major index of the airway responsibility, enhanced pause (Penh) was used. Under the base line condition, Penh was measured for 2 minutes. Then, the mice were exposed to inhalation of PBS or MCh (25 mg/mL) for 2 minutes. The Penh result was expressed as an absolute value.
After evaluation of the airway responsiveness, BAL was performed. The cells were pelleted by centrifugation and resuspended in PBS to obtain the number of cells. Cytospin was prepared with a cell centrifuge (Shandon Cytospin 4 cell centrifuge; Thermo Scientific, MA, USA, USA) and stained with Diff-Quik Stain Set (Dade Behring, USA, DE, USA) to evaluate inflammation.
For evaluation of airway inflammation, left lung was fixed in 4% paraformaldehyde overnight and embedded in paraffin. A histological slide was prepared from 5-μm section, and stained with hematoxylin and eosin (H&E). The inflammation score showing the severity of bronchial inflammation was evaluated by 3 blind observers using a method reported conventionally. To evaluate goblet cell hyperplasia, the section was stained with periodic acid-Schiff (PAS) using PAS staining kit (Sigma-Aldrich), according to the manufacturer's protocol. The nasal cavity mucous membrane and HNE cells collected on the transwell were softly washed with PBS and fixed with 4% paraformaldehyde. […]

[1] = established model of allergic asthma, 10 mg/kg three times/day after tertiary OVA challenge

Compound | OVA-induced airway sensitivity / airway resistance | serum level of OVA-specific IgG (OVA-challenged mice) | goblet cells, inflammation infiltration and epithelial thickness in central airway (histology) (OVA-challenged mice, 10 mg/kg i.p.) | average inflammation score (OVA-challenged mice, versus non-treated group) | number of eosinophils and neutrophils in BALF (OVA-sensitized mice, 10 mg/kg i.p.) | OVA-induced airway sensitivity [1] | PAS positive cells in the airway epithelium [1]
CC(C)(C)c1ccc(C2=NC(=Cc3ccc[nH]3)C(=O)O2)cc1 [F10, 4-((1H-pyrrol-2-yl)methylene)-2-(4-(tert-butyl)phenyl)oxazol-5 (4H)-one] | reduced the airway resistance |  |  |  |  |  | 
CC(C)(C)c1ccc(C2=NC(=Cc3cccs3)C(=O)O2)cc1 [F56, 2-(4-(tert-butyl)phenyl)-4-(thiophen-2-ylmethylene)oxazol-5(4H)-one] | significantly weakened | not changed | weekended | significantly lower | reduced | significantly reduced | significantly reduced
